The values below are quoted from earlier work in patent US20110288064A1, “METHODS FOR TREATING DISORDERS ASSOCIATED WITH […] IN A MAMMAL” (priority 2005, published 2011).

“Also recorded” adds a separate entry of the source. Read-outs that look alike come from different tables or passages of the source.

The conditions of data set [1]: hoFH patients, ezetimibe 10 mg/day added to maximal statin regimen (atorvastatin or simvastatin 80 mg/day).
For data set [2] the following is noted: animal model for homozygous FH, for example at 25 mg/day.
For data set [3] the following is noted: patients, 25 mg/day monotherapy.
The conditions of data set [4]: clinical studies.

With `O=C1[C@H](CC[C@H](O)c2ccc(F)cc2)[C@@H](c2ccc(O)cc2)N1c1ccc(F)cc1` [ezetimibe], in data set [1], the “total reduction of LDL-C levels” value is listed as 27%.
Take `O=C(NC1CCN(CCCCC2(C(=O)NCC(F)(F)F)c3ccccc3-c3ccccc32)CC1)c1ccccc1-c1ccc(C(F)(F)F)cc1` [BMS-201038, N-(2,2,2-Trifluorethyl)-9-[4-[4-[[[4′-(trifluoromethyl)[1,1′biphenyl]-2-Yl]carbonyl]amino]-1-piperidinyl]butyl]9H-fluorene-9-carboxamide]: the plasma cholesterol levels result in data set [2] is on record as “effectively reduced plasma cholesterol levels in a dose dependent manner”. The adverse events result in data set [3] is “gastrointestinal disturbances, abnormalities in liver function, and hepatic steatosis; also recorded: gastrointestinal disorders, abnormalities in liver function and/or hepatic steatosis”.
As to `Cc1cc(C)c2c3ccccc3n(Cc3ccc([C@@H](C(=O)N[C@H](CO)c4ccccc4)C4CCCC4)cc3)c2n1` [implitapide, (2S)-2-cyclopentyl-2-[4-[(2,4-dimethyl-9H-pyrido[2,3-b]indol-9-yl)methyl]phenyl]-N-[(1S)-2-hydroxy-1-phenylethyl]ethanamide], in data set [4] (80 mg/day or greater), the therapeutic efficacy result was “therapeutically effective”. In data set [4] (80 mg/day or greater (80 mg/day, 160 mg/day)), the adverse events entry is “gastrointestinal disturbances, abnormalities in liver function, and hepatic steatosis; also recorded: gastrointestinal disorders, abnormalities in liver function and/or hepatic steatosis”.
